According to a compilation of properties of binary mixtures (doi:10.1016/j.molliq.2020.114573):

Experiment: xn = mol fraction of the nth substance listed
Conditions: 101.3 kPa

CCCC[n+]1ccn(C)c1.O=S(=O)([N-]S(=O)(=O)C(F)(F)F)C(F)(F)F + CC1COC(=O)O1
x1 = 1
Conditions | viscosity [mPa·s]
293.15 K | 63.1
298.15 K | 50.5
303.15 K | 41.13
313.15 K | 28.4
318.15 K | 24.03
323.15 K | 20.54
333.15 K | 15.91
338.15 K | 14.02
343.15 K | 12.37
348.15 K | 10.91

CC1COC(=O)O1 (configuration not stated) + CC[n+]1ccn(C)c1.O=S(=O)([N-]S(=O)(=O)C(F)(F)F)C(F)(F)F
x2 = 0
Conditions | viscosity [mPa·s]
288.15 K | 3.063
293.15 K | 2.746
298.15 K | 2.476
308.15 K | 2.049
313.15 K | 1.879
323.15 K | 1.6
328.15 K | 1.486
333.15 K | 1.385
343.15 K | 1.213
348.15 K | 1.14

CC1COC(=O)O1 (configuration not stated) + CC[n+]1ccn(C)c1C.O=S(=O)([N-]S(=O)(=O)C(F)(F)F)C(F)(F)F
x2 = 0
Conditions | viscosity [mPa·s]
293.15 K | 2.746
298.15 K | 2.476
303.15 K | 2.246
313.15 K | 1.879
318.15 K | 1.73
323.15 K | 1.6
328.15 K | 1.486
333.15 K | 1.385
338.15 K | 1.294
343.15 K | 1.213

CC1COC(=O)O1 (configuration not stated) + CCCC[n+]1ccn(C)c1.O=S(=O)([N-]S(=O)(=O)C(F)(F)F)C(F)(F)F
viscosity [mPa·s]
Conditions | x2 = 0 | x2 = 0.1013 | x2 = 0.1557 | x2 = 0.3071 | x2 = 0.4128 | x2 = 0.5045 | x2 = 0.6 | x2 = 0.7 | x2 = 0.8079 | x2 = 0.8776
288.15 K | 3.063 | 5.14 | 6.77 | 12.5 | 18.43 | 24.64 | 32.48 | 43.74 | 55.8 | 64.4
293.15 K | 2.746 | 4.535 | 5.9 | 10.63 | 15.39 | 20.32 | – | 35.25 | 44.52 | –
298.15 K | 2.476 | – | 5.19 | 9.12 | 13.04 | – | 21.83 | – | 36.14 | 41.16
303.15 K | 2.246 | 3.605 | 4.596 | 7.92 | 11.15 | – | 18.29 | 24.03 | – | –
308.15 K | 2.049 | – | – | 6.95 | – | – | 15.52 | 20.24 | 24.9 | 28.07
313.15 K | 1.879 | 2.945 | 3.69 | 6.14 | 8.42 | – | 13.31 | 17.63 | 21.07 | –
318.15 K | 1.73 | 2.683 | 3.339 | 5.47 | 7.42 | 9.33 | 11.54 | – | 18.27 | 20.13
323.15 K | 1.6 | 2.455 | 3.038 | 4.91 | – | 8.21 | 10.09 | – | 16.06 | 17.66
328.15 K | 1.486 | 2.258 | 2.778 | 4.422 | 5.88 | 7.29 | 8.9 | 11.5 | 13.99 | 15.53
333.15 K | 1.385 | 2.085 | 2.552 | 4.014 | 5.3 | 6.52 | 7.91 | 10.04 | 12.18 | –
338.15 K | 1.294 | 1.931 | 2.354 | – | 4.79 | 5.86 | 7.07 | 8.82 | 10.66 | 11.9
343.15 K | 1.213 | 1.796 | 2.18 | 3.353 | 4.359 | 5.3 | 6.36 | 7.8 | 9.39 | 10.46
348.15 K | – | 1.676 | – | 3.085 | 3.984 | 4.82 | 5.76 | 6.96 | 8.33 | 9.23

CC[n+]1ccn(C)c1.O=S(=O)([N-]S(=O)(=O)C(F)(F)F)C(F)(F)F + CC1COC(=O)O1
Conditions | viscosity [mPa·s]
288.15 K, x1 = 0.1 | 4.724
288.15 K, x1 = 0.2127 | 7.25
288.15 K, x1 = 0.3007 | 9.74
288.15 K, x1 = 0.4227 | 14.35
288.15 K, x1 = 0.5146 | 18.39
288.15 K, x1 = 0.6015 | 23.02
288.15 K, x1 = 0.658 | 25.85
288.15 K, x1 = 0.7004 | 28.44
288.15 K, x1 = 0.7601 | 31.76
288.15 K, x1 = 0.8098 | 35.48
288.15 K, x1 = 0.8657 | 38.62
288.15 K, x1 = 0.8868 | 40.67
288.15 K, x1 = 0.9533 | 44.93
288.15 K, x1 = 1 | 47.8
293.15 K, x1 = 0.1 | 4.184
293.15 K, x1 = 0.2127 | 6.34
293.15 K, x1 = 0.4227 | 11.98
293.15 K, x1 = 0.5146 | 15.03
293.15 K, x1 = 0.6015 | 19.33
293.15 K, x1 = 0.658 | 21.63
293.15 K, x1 = 0.7004 | 23.75
293.15 K, x1 = 0.7601 | 26.4
293.15 K, x1 = 0.7977 | 28.37
293.15 K, x1 = 0.8098 | 29.37
293.15 K, x1 = 0.8657 | 31.88
293.15 K, x1 = 0.8868 | 33.56
293.15 K, x1 = 0.9533 | 36.88
298.15 K, x1 = 0.1 | 3.737
298.15 K, x1 = 0.3007 | 7.34
298.15 K, x1 = 0.4227 | 10.32
298.15 K, x1 = 0.5146 | 12.87
298.15 K, x1 = 0.6015 | 16.3
298.15 K, x1 = 0.658 | 18.51
298.15 K, x1 = 0.7601 | 22.25
298.15 K, x1 = 0.7977 | 23.88
298.15 K, x1 = 0.8098 | 24.66
298.15 K, x1 = 0.8657 | 26.69
298.15 K, x1 = 0.8868 | 28.06
298.15 K, x1 = 0.9533 | 30.76
298.15 K, x1 = 1 | 32.42
303.15 K, x1 = 0.2127 | 4.96
303.15 K, x1 = 0.3007 | 6.46
303.15 K, x1 = 0.5146 | 11.13
303.15 K, x1 = 0.6015 | 14.61
303.15 K, x1 = 0.658 | 16.21
303.15 K, x1 = 0.7004 | 17.58
303.15 K, x1 = 0.7977 | 20.34
303.15 K, x1 = 0.8098 | 20.96
303.15 K, x1 = 0.8657 | 22.62
303.15 K, x1 = 0.8868 | 23.76
303.15 K, x1 = 0.9533 | 25.94
303.15 K, x1 = 1 | 27.26
308.15 K, x1 = 0.1 | 3.037
308.15 K, x1 = 0.2127 | 4.435
308.15 K, x1 = 0.3007 | 5.73
308.15 K, x1 = 0.5146 | 9.72
308.15 K, x1 = 0.658 | 14.09
308.15 K, x1 = 0.7004 | 15.35
308.15 K, x1 = 0.7977 | 17.84
308.15 K, x1 = 0.8098 | 18.26
308.15 K, x1 = 0.8657 | 19.38
308.15 K, x1 = 0.8868 | 20.35
308.15 K, x1 = 0.9533 | 22.14
313.15 K, x1 = 0.1 | 2.762
313.15 K, x1 = 0.2127 | 3.99
313.15 K, x1 = 0.3007 | 5.13
313.15 K, x1 = 0.4227 | 6.99
313.15 K, x1 = 0.5146 | 8.55
313.15 K, x1 = 0.6015 | 10.89
313.15 K, x1 = 0.658 | 12.21
313.15 K, x1 = 0.7004 | 13.32
313.15 K, x1 = 0.7977 | 15.7
313.15 K, x1 = 0.8657 | 17.2
313.15 K, x1 = 0.8868 | 17.89
313.15 K, x1 = 0.9533 | 19.08
318.15 K, x1 = 0.1 | 2.524
318.15 K, x1 = 0.2127 | 3.613
318.15 K, x1 = 0.4227 | 6.24
318.15 K, x1 = 0.5146 | 7.6
318.15 K, x1 = 0.658 | 10.64
318.15 K, x1 = 0.7601 | 12.82
318.15 K, x1 = 0.7977 | 13.74
318.15 K, x1 = 0.8098 | 14.09
318.15 K, x1 = 0.8657 | 15.18
318.15 K, x1 = 0.8868 | 15.85
318.15 K, x1 = 1 | 17.37
323.15 K, x1 = 0.1 | 2.318
323.15 K, x1 = 0.2127 | 3.292
323.15 K, x1 = 0.3007 | 4.173
323.15 K, x1 = 0.4227 | 5.6
323.15 K, x1 = 0.5146 | 6.79
323.15 K, x1 = 0.658 | 9.31
323.15 K, x1 = 0.7004 | 10.12
323.15 K, x1 = 0.7601 | 11.2
323.15 K, x1 = 0.7977 | 11.96
323.15 K, x1 = 0.8098 | 12.34
323.15 K, x1 = 0.8657 | 13.32
323.15 K, x1 = 0.8868 | 13.92
323.15 K, x1 = 0.9533 | 15.09
323.15 K, x1 = 1 | 15.34
328.15 K, x1 = 0.1 | 2.138
328.15 K, x1 = 0.3007 | 3.8
328.15 K, x1 = 0.6015 | 7.37
328.15 K, x1 = 0.658 | 8.23
328.15 K, x1 = 0.7004 | 8.93
328.15 K, x1 = 0.8098 | 10.81
328.15 K, x1 = 0.8657 | 11.71
328.15 K, x1 = 0.8868 | 12.21
328.15 K, x1 = 0.9533 | 13.31
328.15 K, x1 = 1 | 13.63
333.15 K, x1 = 0.2127 | 2.771
333.15 K, x1 = 0.4227 | 4.607
333.15 K, x1 = 0.5146 | 5.53
333.15 K, x1 = 0.6015 | 6.52
333.15 K, x1 = 0.7601 | 8.7
333.15 K, x1 = 0.7977 | 9.28
333.15 K, x1 = 0.8098 | 9.55
333.15 K, x1 = 0.8657 | 10.33
333.15 K, x1 = 0.8868 | 10.75
333.15 K, x1 = 0.9533 | 11.76
333.15 K, x1 = 1 | 12.17
338.15 K, x1 = 0.2127 | 2.558
338.15 K, x1 = 0.3007 | 3.195
338.15 K, x1 = 0.4227 | 4.205
338.15 K, x1 = 0.5146 | 5.03
338.15 K, x1 = 0.6015 | 5.88
338.15 K, x1 = 0.658 | 6.52
338.15 K, x1 = 0.7004 | 7.07
338.15 K, x1 = 0.7601 | 7.75
338.15 K, x1 = 0.7977 | 8.26
338.15 K, x1 = 0.8098 | 8.49
338.15 K, x1 = 0.8657 | 9.18
338.15 K, x1 = 0.8868 | 9.55
338.15 K, x1 = 0.9533 | 10.42
338.15 K, x1 = 1 | 10.88
343.15 K, x1 = 0.1 | 1.712
343.15 K, x1 = 0.2127 | 2.37
343.15 K, x1 = 0.3007 | 2.947
343.15 K, x1 = 0.4227 | 3.852
343.15 K, x1 = 0.6015 | 5.33
343.15 K, x1 = 0.658 | 5.88
343.15 K, x1 = 0.7004 | 6.33
343.15 K, x1 = 0.8657 | 8.2
343.15 K, x1 = 0.8868 | 8.52
343.15 K, x1 = 0.9533 | 9.3
343.15 K, x1 = 1 | 9.76
348.15 K, x1 = 0.3007 | 2.729
348.15 K, x1 = 0.4227 | 3.549
348.15 K, x1 = 0.5146 | 4.215
348.15 K, x1 = 0.6015 | 4.9
348.15 K, x1 = 0.7004 | 5.77
348.15 K, x1 = 0.7601 | 6.34
348.15 K, x1 = 0.7977 | 6.71
348.15 K, x1 = 0.8098 | 6.83
348.15 K, x1 = 0.8657 | 7.35
348.15 K, x1 = 0.8868 | 7.64
348.15 K, x1 = 0.9533 | 8.33
348.15 K, x1 = 1 | 8.78
